# Source: PubChem BioAssay AID248 (DTP/NCI, 2004)
# Values joined by “and” are separate entries in the source; they are usually repeats but may differ in a detail not shown here. Identical values can stand only once. Inconclusive results and toxic doses are left out.
# Test system: L1210 leukemia ip in BDF1 mice, survival T/C
# Assay: NCI In Vivo Anticancer Drug Screen. Data for tumor model L1210 Leukemia (intraperitoneal) in B6D2F1 (BDF1) mice
# Details: endpoint: mean survival time, higher = longer survival
# Method in brief: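 Survival endpoint. Drug-treated group vs vehicle group, expressed as T divided by C. Tumor passaged by transplantation.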
smiles,measurement,setting,value
O=c1[nH]cc(N(CCCl)CCCl)c(=O)[nH]1,T/C,"dose: 0.04 mg/kg/injection, schedule: Q01DX001 (ip), vehicle: carboxymethylcellulose (CMC)",106 % of control
same,T/C,"dose: 0.05 mg/kg/injection, schedule: Q01DX Z (ip), vehicle: carboxymethylcellulose (CMC)",107 % of control
same,T/C,"dose: 0.05 mg/kg/injection, schedule: Q#A X Z (ip), vehicle: carboxymethylcellulose (CMC)",101 % of control
same,T/C,"dose: 0.07 mg/kg/injection, schedule: Q01DX001 (ip), vehicle: carboxymethylcellulose (CMC)",101 % of control
same,T/C,"dose: 0.07 mg/kg/injection, schedule: Q03DX006 (ip), vehicle: carboxymethylcellulose (CMC)",123 % of control
same,T/C,"dose: 0.09 mg/kg/injection, schedule: Q#A X Z (ip), vehicle: carboxymethylcellulose (CMC)",106 % of control
same,T/C,"dose: 0.1 mg/kg/injection, schedule: Q01DX Z (ip), vehicle: carboxymethylcellulose (CMC)",102 % of control
same,T/C,"dose: 0.1 mg/kg/injection, schedule: Q01DX Z (ip), vehicle: saline",157 % of control
same,T/C,"dose: 0.13 mg/kg/injection, schedule: Q01DX001 (ip), vehicle: carboxymethylcellulose (CMC)",100 % of control
same,T/C,"dose: 0.16 mg/kg/injection, schedule: Q07DX003 (ip), vehicle: carboxymethylcellulose (CMC)",108 % of control
same,T/C,"dose: 0.19 mg/kg/injection, schedule: Q#A X Z (ip), vehicle: carboxymethylcellulose (CMC)",110 % of control
same,T/C,"dose: 0.25 mg/kg/injection, schedule: Q01DX001 (ip), vehicle: carboxymethylcellulose (CMC)",105 % of control
same,T/C,"dose: 0.3 mg/kg/injection, schedule: Q01DX Z (ip), vehicle: saline",159 % of control
same,T/C,"dose: 0.3 mg/kg/injection, schedule: Q03DX006 (ip), vehicle: carboxymethylcellulose (CMC)",109 % of control
same,T/C,"dose: 0.32 mg/kg/injection, schedule: Q07DX003 (ip), vehicle: carboxymethylcellulose (CMC)",102 % of control
same,T/C,"dose: 0.37 mg/kg/injection, schedule: Q#A X Z (ip), vehicle: carboxymethylcellulose (CMC)",119 % of control
same,T/C,"dose: 0.38 mg/kg/injection, schedule: Q01DX006 (iv), vehicle: carboxymethylcellulose (CMC)",91 % of control
same,T/C,"dose: 0.38 mg/kg/injection, schedule: Q01DX Z (im), vehicle: carboxymethylcellulose (CMC)",98 % of control
same,T/C,"dose: 0.38 mg/kg/injection, schedule: Q01DX Z (sc), vehicle: carboxymethylcellulose (CMC)",104 % of control
same,T/C,"dose: 0.5 mg/kg/injection, schedule: Q01DX001 (ip), vehicle: carboxymethylcellulose (CMC)",170 % of control
same,T/C,"dose: 0.6 mg/kg/injection, schedule: Q03DX006 (ip), vehicle: carboxymethylcellulose (CMC)",170 % of control
same,T/C,"dose: 0.63 mg/kg/injection, schedule: Q07DX003 (ip), vehicle: carboxymethylcellulose (CMC)",121 % of control
same,T/C,"dose: 0.7 mg/kg/injection, schedule: Q01DX Z (ip), vehicle: saline",101 % of control
same,T/C,"dose: 0.75 mg/kg/injection, schedule: Q01DX006 (iv), vehicle: carboxymethylcellulose (CMC)",110 % of control
same,T/C,"dose: 0.75 mg/kg/injection, schedule: Q01DX015 (ip), vehicle: carboxymethylcellulose (CMC)",178 % of control
same,T/C,"dose: 0.75 mg/kg/injection, schedule: Q01DX Z (im), vehicle: carboxymethylcellulose (CMC)",101 % of control
same,T/C,"dose: 0.75 mg/kg/injection, schedule: Q01DX Z (ip), vehicle: carboxymethylcellulose (CMC)",119 % of control
same,T/C,"dose: 0.75 mg/kg/injection, schedule: Q01DX Z (sc), vehicle: carboxymethylcellulose (CMC)",107 % of control
same,T/C,"dose: 0.8 mg/kg/injection, schedule: Q01DX Z (ip), vehicle: other",109 % of control
same,T/C,"dose: 1.1 mg/kg/injection, schedule: Q01DX015 (ip), vehicle: carboxymethylcellulose (CMC)",182 % of control
same,T/C,"dose: 1.1 mg/kg/injection, schedule: Q03DX006 (ip), vehicle: carboxymethylcellulose (CMC)",181 % of control
same,T/C,"dose: 1.2 mg/kg/injection, schedule: Q01DX Z (ip), vehicle: alkali diluted with saline",118 % of control
same,T/C,"dose: 1.2 mg/kg/injection, schedule: Q01DX Z (ip), vehicle: saline",159 % of control
same,T/C,"dose: 1.25 mg/kg/injection, schedule: Q07DX003 (ip), vehicle: carboxymethylcellulose (CMC)",114 % of control and 201 % of control
same,T/C,"dose: 1.3 mg/kg/injection, schedule: Q01DX Z (ip), vehicle: other",120 % of control
same,T/C,"dose: 1.5 mg/kg/injection, schedule: Q01DX006 (iv), vehicle: carboxymethylcellulose (CMC)",104 % of control and 109 % of control
same,T/C,"dose: 1.5 mg/kg/injection, schedule: Q01DX Z (im), vehicle: carboxymethylcellulose (CMC)",108 % of control
same,T/C,"dose: 1.5 mg/kg/injection, schedule: Q01DX Z (ip), vehicle: carboxymethylcellulose (CMC)",115 % of control
same,T/C,"dose: 1.5 mg/kg/injection, schedule: Q01DX Z (oral), vehicle: carboxymethylcellulose (CMC)",119 % of control
same,T/C,"dose: 1.5 mg/kg/injection, schedule: Q01DX Z (sc), vehicle: carboxymethylcellulose (CMC)",115 % of control
same,T/C,"dose: 1.5 mg/kg/injection, schedule: Q#A X Z (ip), vehicle: carboxymethylcellulose (CMC)",111 % of control
same,T/C,"dose: 1.6 mg/kg/injection, schedule: Q01DX001 (ip), vehicle: gum acacia",110 % of control
same,T/C,"dose: 1.7 mg/kg/injection, schedule: Q01DX015 (ip), vehicle: carboxymethylcellulose (CMC)",170 % of control
same,T/C,"dose: 1.8 mg/kg/injection, schedule: Q01DX Z (ip), vehicle: alkali diluted with saline",112 % of control
same,T/C,"dose: 1.8 mg/kg/injection, schedule: Q01DX Z (ip), vehicle: other",109 % of control
same,T/C,"dose: 2.0 mg/kg/injection, schedule: Q01DX001 (ip), vehicle: carboxymethylcellulose (CMC)",109 % of control and 123 % of control
same,T/C,"dose: 2.4 mg/kg/injection, schedule: Q01DX001 (ip), vehicle: gum acacia",186 % of control
same,T/C,"dose: 2.5 mg/kg/injection, schedule: Q01DX Z (ip), vehicle: alkali diluted with saline",116 % of control
same,T/C,"dose: 2.7 mg/kg/injection, schedule: Q01DX Z (ip), vehicle: other",124 % of control
same,T/C,"dose: 3.0 mg/kg/injection, schedule: Q01DX006 (iv), vehicle: carboxymethylcellulose (CMC)",112 % of control
same,T/C,"dose: 3.0 mg/kg/injection, schedule: Q01DX Z (ip), vehicle: carboxymethylcellulose (CMC)",105 % of control and 115 % of control
same,T/C,"dose: 3.0 mg/kg/injection, schedule: Q01DX Z (ip), vehicle: saline",112 % of control
same,T/C,"dose: 3.6 mg/kg/injection, schedule: Q01DX001 (ip), vehicle: carboxymethylcellulose (CMC)",163 % of control
same,T/C,"dose: 3.6 mg/kg/injection, schedule: Q01DX001 (ip), vehicle: gum acacia",150 % of control
same,T/C,"dose: 3.7 mg/kg/injection, schedule: Q01DX Z (ip), vehicle: saline",90 % of control
same,T/C,"dose: 4.5 mg/kg/injection, schedule: Q03DX006 (ip), vehicle: carboxymethylcellulose (CMC)",111 % of control
same,T/C,"dose: 5.0 mg/kg/injection, schedule: Q01DX001 (ip), vehicle: carboxymethylcellulose (CMC)",161 % of control
same,T/C,"dose: 5.0 mg/kg/injection, schedule: Q07DX003 (ip), vehicle: carboxymethylcellulose (CMC)",188 % of control
same,T/C,"dose: 5.4 mg/kg/injection, schedule: Q01DX001 (ip), vehicle: gum acacia",172 % of control and 330 % of control
same,T/C,"dose: 6.0 mg/kg/injection, schedule: Q01DX Z (im), vehicle: carboxymethylcellulose (CMC)",95 % of control
same,T/C,"dose: 6.0 mg/kg/injection, schedule: Q01DX Z (oral), vehicle: carboxymethylcellulose (CMC)",104 % of control
same,T/C,"dose: 6.0 mg/kg/injection, schedule: Q01DX Z (sc), vehicle: carboxymethylcellulose (CMC)",105 % of control
same,T/C,"dose: 6.0 mg/kg/injection, schedule: Q#A X Z (ip), vehicle: carboxymethylcellulose (CMC)",154 % of control
same,T/C,"dose: 10.0 mg/kg/injection, schedule: Q01DX001 (ip), vehicle: carboxymethylcellulose (CMC)",105 % of control and 123 % of control
same,T/C,"dose: 12.0 mg/kg/injection, schedule: Q01DX006 (iv), vehicle: carboxymethylcellulose (CMC)",115 % of control
same,T/C,"dose: 20.0 mg/kg/injection, schedule: Q01DX001 (ip), vehicle: carboxymethylcellulose (CMC)",120 % of control
same,T/C,"dose: 29.0 micrograms/kg/injection, schedule: Q01DX Z (ip), vehicle: saline",119 % of control
same,T/C,"dose: 44.0 micrograms/kg/injection, schedule: Q01DX Z (ip), vehicle: saline",121 % of control
same,T/C,"dose: 100.0 micrograms/kg/injection, schedule: Q01DX Z (ip), vehicle: saline",113 % of control
CCCCSCC(N)C(=O)OC (stereo not given),T/C,"dose: 100.0 mg/kg/injection, schedule: Q01DX009 (ip), vehicle: saline",96 % of control
same,T/C,"dose: 100.0 mg/kg/injection, schedule: Q04DX003 (ip), vehicle: saline",106 % of control
same,T/C,"dose: 200.0 mg/kg/injection, schedule: Q01DX009 (ip), vehicle: saline",101 % of control
same,T/C,"dose: 200.0 mg/kg/injection, schedule: Q04DX003 (ip), vehicle: saline",100 % of control
same,T/C,"dose: 400.0 mg/kg/injection, schedule: Q01DX009 (ip), vehicle: saline",112 % of control
same,T/C,"dose: 400.0 mg/kg/injection, schedule: Q04DX003 (ip), vehicle: saline",97 % of control
